What was measured:
BRD4 domain 1 = BRD4 domain 1 (Homo sapiens, UniProt O60885); assay: Kd determination of inhibitors binding to BRD4 domain 1 (Epic label-free platform); settings: direct binding to immobilized BRD4 domain 1; tripling dilution series from 20µM; about 1hr equilibrium; rounded to whole number; read-out: Epic Kd BRD41
Procedure, shortened: (§1)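 Label-free resonant waveguide (Epic) direct binding to BRD4 domain 1 or domain 2 amine-coupled via EDC/Sulfo-NHS at 150 µg/mL in 20 mM HEPES pH 7. Binding response taken as wavelength shift (pm) between baseline and second read; Kd from fit to a single-site binding isotherm.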

BRD4 domain 2 = BRD4 domain 2 (Homo sapiens, UniProt O60885); assay: Kd determination of inhibitors binding to BRD4 domain 2 (Epic label-free platform); settings: direct binding to immobilized BRD4 domain 2; tripling dilution series from 20µM; about 1hr equilibrium; rounded to whole number
Procedure, shortened: as §1

| Kd (BRD4 domain 1) [nM] | Kd (BRD4 domain 2) [nM] | Structure (SMILES) |
| --- | --- | --- |
| 881 | 656 | Cc1noc(C)c1-c1cc(S(=O)(=O)NC2CCCC2)c2cc(NCCN3CCCC3)c(=O)[nH]c2c1 [Compound 89, N-cyclopentyl-7-(3,5-dimethylisoxazol-4-yl)-2-oxo-3-((2-(pyrrolidin-1-yl)ethyl)amino)-1,2-dihydroquinoline-5-sulfonamide] |
| 652 | 560 | Cc1noc(C)c1-c1cc(S(=O)(=O)NC2CCCC2)c2cc(NCCN3CCOCC3)c(=O)[nH]c2c1 [Compound 90, N-cyclopentyl-7-(3,5-dimethylisoxazol-4-yl)-3-((2-morpholinoethyl)amino)-2-oxo-1,2-dihydroquinoline-5-sulfonamide] |
| 705 | 473 | Cc1noc(C)c1-c1cc(S(=O)(=O)NC2CCCC2)c2cc(NCCOCCO)c(=O)[nH]c2c1 [Compound 91, N-cyclopentyl-7-(3,5-dimethylisoxazol-4-yl)-3-((2-(2-hydroxyethoxy)ethyl)amino)-2-oxo-1,2-dihydroquinoline-5-sulfonamide] |
| 897 | 493 | Cc1noc(C)c1-c1cc(S(=O)(=O)NC2CCCC2)c2cc(NC(CO)CO)c(=O)[nH]c2c1 [Compound 92, N-cyclopentyl-3-((1,3-dihydroxypropan-2-yl)amino)-7-(3,5-dimethylisoxazol-4-yl)-2-oxo-1,2-dihydroquinoline-5-sulfonamide] |
| 951 | 417 | Cc1noc(C)c1-c1cc(S(=O)(=O)NC2CCCC2)c2cc(NCC(O)CO)c(=O)[nH]c2c1 (stereo not drawn) [Compound 93, N-cyclopentyl-3-((2,3-dihydroxypropyl)amino)-7-(3,5-dimethylisoxazol-4-yl)-2-oxo-1,2-dihydroquinoline-5-sulfonamide] |
| 743 | 569 | Cc1noc(C)c1-c1cc(S(=O)(=O)NC2CCCC2)c2cc(NCCCN)c(=O)[nH]c2c1 [Compound 94, 3-((3-aminopropyl)amino)-N-cyclopentyl-7-(3,5-dimethylisoxazol-4-yl)-2-oxo-1,2-dihydroquinoline-5-sulfonamide] |
| 798 | 503 | Cc1noc(C)c1-c1cc(S(=O)(=O)NC2CCCC2)c2cc(NCCCN(C)C)c(=O)[nH]c2c1 [Compound 95, N-cyclopentyl-3-((3-(dimethylamino)propyl)amino)-7-(3,5-dimethylisoxazol-4-yl)-2-oxo-1,2-dihydroquinoline-5-sulfonamide] |
| 467 | 433 | Cc1noc(C)c1-c1cc(S(=O)(=O)NC2CCCC2)c2cc(NC3COC3)c(=O)[nH]c2c1 [Compound 96, N-cyclopentyl-7-(3,5-dimethylisoxazol-4-yl)-3-(oxetan-3-ylamino)-2-oxo-1,2-dihydroquinoline-5-sulfonamide] |
| 936 | 658 | Cc1noc(C)c1-c1cc(S(=O)(=O)NC2CCCC2)c2cc(NC(C)(C)CO)c(=O)[nH]c2c1 [Compound 97, N-cyclopentyl-7-(3,5-dimethylisoxazol-4-yl)-3-((1-hydroxy-2-methylpropan-2-yl)amino)-2-oxo-1,2-dihydroquinoline-5-sulfonamide] |
| 1030 | 545 | Cc1noc(C)c1-c1cc(S(=O)(=O)NC2CCCC2)c2cc(NCC(C)(C)O)c(=O)[nH]c2c1 [Compound 98, N-cyclopentyl-7-(3,5-dimethylisoxazol-4-yl)-3-((2-hydroxy-2-methylpropyl)amino)-2-oxo-1,2-dihydroquinoline-5-sulfonamide] |
| 671 | 632 | Cc1noc(C)c1-c1cc(S(=O)(=O)NC2CCCC2)c2cc(NCC(C)(C)N)c(=O)[nH]c2c1 [Compound 99, 3-((2-amino-2-methylpropyl)amino)-N-cyclopentyl-7-(3,5-dimethylisoxazol-4-yl)-2-oxo-1,2-dihydroquinoline-5-sulfonamide] |
| 8950 | 11400 | Cc1noc(C)c1-c1cc(S(=O)(=O)N[C@H](C)C(F)(F)F)c2cccnc2c1 [Compound 100, (R)-7-(3,5-dimethylisoxazol-4-trifluoropropan-2-yl)quinoline-5-sulfonamide] |
